The first test has as its target GCN2 (Homo sapiens, UniProt Q9P2K8). The test can be described thus: GCN2 enzymatic endpoint assay: phosphorylation of GFP-eIF2α measured by TR-FRET (Lanthascreen). Conditions: GCN2 biochemical IC50; 4 nM GCN2, 2 μM ATP, 80 nM GFP-eIF2α, 90 min RT; read-out: GCN2 activity. The format is biochemical. In a few lines: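 Reaction started with 2 μM ATP and 80 nM GFP-labelled eIF2α substrate at room temperature, stopped with EDTA after 90 minutes. Phospho-eIF2α detected by terbium-labelled antibody TR-FRET; activity taken as 520 nm (fluorescein) to 495 nm (terbium) emission ratio.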
In general terms: TR-FRET usually uses a lanthanide donor and a delayed reading to cut background.
Chain of GCN2 (Q9P2K8 whole entry): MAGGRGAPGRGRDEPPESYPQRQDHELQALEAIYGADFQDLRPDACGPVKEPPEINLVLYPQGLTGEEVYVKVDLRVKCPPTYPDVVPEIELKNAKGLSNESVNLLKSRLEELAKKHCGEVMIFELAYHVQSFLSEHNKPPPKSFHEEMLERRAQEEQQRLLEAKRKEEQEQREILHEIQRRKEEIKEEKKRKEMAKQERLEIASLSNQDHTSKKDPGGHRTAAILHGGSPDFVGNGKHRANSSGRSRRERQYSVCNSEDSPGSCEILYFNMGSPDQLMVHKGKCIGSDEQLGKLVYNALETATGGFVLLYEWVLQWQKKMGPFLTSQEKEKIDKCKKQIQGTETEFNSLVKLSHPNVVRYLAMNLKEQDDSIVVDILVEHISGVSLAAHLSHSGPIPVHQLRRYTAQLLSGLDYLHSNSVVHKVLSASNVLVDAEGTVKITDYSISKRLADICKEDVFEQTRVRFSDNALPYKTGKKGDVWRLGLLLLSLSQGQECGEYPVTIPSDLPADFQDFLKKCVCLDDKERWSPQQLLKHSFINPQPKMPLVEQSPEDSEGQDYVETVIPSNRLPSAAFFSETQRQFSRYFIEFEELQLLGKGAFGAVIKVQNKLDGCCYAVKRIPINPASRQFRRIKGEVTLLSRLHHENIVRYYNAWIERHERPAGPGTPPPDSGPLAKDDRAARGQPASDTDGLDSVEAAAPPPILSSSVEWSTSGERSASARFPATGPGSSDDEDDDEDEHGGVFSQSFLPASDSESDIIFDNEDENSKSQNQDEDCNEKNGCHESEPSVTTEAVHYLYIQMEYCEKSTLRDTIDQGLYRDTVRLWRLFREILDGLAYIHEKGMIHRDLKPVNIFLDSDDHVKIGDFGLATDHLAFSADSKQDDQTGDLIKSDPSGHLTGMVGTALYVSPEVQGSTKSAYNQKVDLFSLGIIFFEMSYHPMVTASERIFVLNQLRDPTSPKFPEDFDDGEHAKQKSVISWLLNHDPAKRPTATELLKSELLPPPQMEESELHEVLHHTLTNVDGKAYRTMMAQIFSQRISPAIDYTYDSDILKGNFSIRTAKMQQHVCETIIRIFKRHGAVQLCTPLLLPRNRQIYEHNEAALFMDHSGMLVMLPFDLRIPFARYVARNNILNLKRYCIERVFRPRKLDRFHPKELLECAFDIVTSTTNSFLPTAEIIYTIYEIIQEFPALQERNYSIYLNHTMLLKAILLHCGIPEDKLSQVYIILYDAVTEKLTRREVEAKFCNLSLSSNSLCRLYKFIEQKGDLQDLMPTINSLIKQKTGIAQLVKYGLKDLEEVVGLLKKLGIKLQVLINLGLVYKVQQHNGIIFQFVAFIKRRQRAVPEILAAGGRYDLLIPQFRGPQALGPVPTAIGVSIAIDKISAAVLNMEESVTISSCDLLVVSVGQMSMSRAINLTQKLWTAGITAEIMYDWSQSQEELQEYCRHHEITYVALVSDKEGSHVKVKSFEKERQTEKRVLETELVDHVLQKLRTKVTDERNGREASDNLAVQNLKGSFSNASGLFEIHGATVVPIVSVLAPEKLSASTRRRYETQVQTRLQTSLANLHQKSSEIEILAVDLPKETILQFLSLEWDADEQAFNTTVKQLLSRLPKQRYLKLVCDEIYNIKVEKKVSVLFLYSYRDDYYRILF
`CNC(=O)[C@]1(C)CC[C@@H](Nc2ncc3c(Br)nn(-c4cc(C#N)cc(OCC5(F)CNC5)c4)c3n2)C1` [Example 36, (1R,3R)-3-((3-bromo-1-(3-cyano-5-((3-fluoroazetidin-3-yl)methoxy)phenyl)-1H-pyrazolo[3,4-d]pyrimidin-6-yl)amino)-N,1-dimethylcyclopentane-1-carboxamide; 2,2,2-trifluoroacetic acid]: the IC50 was under 25 nM.

As for `CNC(=O)[C@]1(C)CC[C@@H](Nc2ncc3c(I)nn(-c4cc(F)c5ncccc5c4)c3n2)C1` [Example 31, (1R,3R)-3-((1-(8-fluoroquinolin-6-yl)-3-iodo-1H-pyrazolo[3,4-d]pyrimidin-6-yl)amino)-N,1-dimethylcyclopentane-1-carboxamide; 2,2,2-trifluoroacetic acid], the IC50 is under 25 nM. On the same count and under the same terms, the same measure for `Cc1nnc(-c2ccc(-n3nc(Br)c4cnc(N[C@@H]5CC[C@](C(=O)N6CCNCC6)(C(C)C)C5)nc43)cc2CCC(N)=O)s1` [Example 28, 3-(5-(3-bromo-6-(((1R,3R)-3-isopropyl-3-(piperazine-1-carbonyl)cyclopentyl)amino)-1H-pyrazolo[3,4-d]pyrimidin-1-yl)-2-(5-methyl-1,3,4-thiadiazol-2-yl)phenyl)propanamide; 2,2,2-trifluoroacetic acid]: under 25 nM; for `CNC(=O)[C@]1(C)CC[C@@H](Nc2ncc3c(Br)nn(-c4ccc5c(c4)CN(S(C)(=O)=O)C5)c3n2)C1` [Example 61, (1R,3R)-3-((3-bromo-1-(2-(methylsulfonyl)isoindolin-5-yl)-1H-pyrazolo[3,4-d]pyrimidin-6-yl)amino)-N,1-dimethylcyclopentane-1-carboxamide]: 25 to 200 nM.

The test is the same for the next values; noted with them: tested as described in Example 77; compound and/or hydrochloride, dihydrochloride or trifluoroacetic acid salt; read-out: IC 50 Activity.
With `CNC(=O)[C@]1(C)CC[C@@H](Nc2ncc3c(Br)nn(-c4cc(CN)c5nccnc5c4)c3n2)C1` [(1R,3R)-3-[[1-[8-(aminomethyl)quinoxalin-6-yl]-3-bromo-pyrazolo[3,4-d]pyrimidin-6-yl]amino]-N,1-dimethyl-cyclopentane-carboxamide], the IC50 was in the range of 25 to 200 nM. For `CN(C)C(=O)N1CC[C@@H](Nc2ncc3c(Br)nn(-c4ccc5ncccc5c4)c3n2)C1` [(R)-3-((3-bromo-1-(quinolin-6-yl)-1H-pyrazolo [3,4-d]pyrimidin-6-yl)amino)-N,N-dimethyl-pyrrolidine-1-carboxamide], the IC50 was in the range of 500 to 1000 nM. Regarding `CNC(=O)[C@@H]1CC[C@@H](Nc2ncc3c(Br)nn(-c4ccc5c(C)nn(C)c5c4)c3n2)C1` [(1R,3R)-3-[[3-bromo-1-(1,3-dimethylindazol-6-yl)pyrazolo[3,4-d]pyrimidin-6-yl]amino]-N-methyl-cyclopentanecarboxamide], the IC50 was in the range of 25 to 200 nM. As to `CNC(=O)[C@@]1(C)CC[C@@H](Nc2ncc3c(Br)nn(-c4ccc5ncccc5c4)c3n2)C1` [(1S,3R)-3-((3-bromo-1-(quinolin-6-yl)-1H-pyrazolo[3,4-d]pyrimidin-6-yl)amino)-N,1-dimethylcyclopentane-1-carboxamide], the IC50 fell in the range of 200 to 500 nM. Consider `CNC(=O)[C@]1([C@@H](C)C#N)CC[C@@H](Nc2ncc3c(Br)nn(-c4ccc(-c5nnc(C)s5)cc4)c3n2)C1` [(1R,3R)-3-[[3-bromo-1-[4-(5-methyl-1,3,4-thiadiazol-2-yl)phenyl]pyrazolo [3,4-d]pyrimidin-6-yl]amino]-1-[(1R)-1-cyanoethyl]-N-methyl-cyclopentane-carboxamide], for which the IC50 lay in the range of 25 to 200 nM. On the same count and under the same terms, in the case of `O=C(NCc1ncco1)[C@@H]1CC[C@@H](Nc2ncc3c(Br)nn(-c4ccc5ncccc5c4)c3n2)C1` [(1R,3R)-3-((3-bromo-1-(quinolin-6-yl)-1H-pyrazolo[3,4-d]pyrimidin-6-yl)amino)-N-(oxazol-2-ylmethyl)cyclopentane-1-carboxamide] it was 25 to 200 nM. Still for that read-out and setting: in the case of `CNC(=O)[C@]1(C)CC[C@@H](Nc2ncc3c(Br)nn(-c4ccc(-c5nnc(C(C)CO)o5)cc4)c3n2)C1` (stereo partly drawn) [(1R,3R)-3-[[3-bromo-1-[4-[5-(2-hydroxy-1-methyl-ethyl)-1,3,4-oxadiazol-2-yl]phenyl]pyrazolo[3,4-d]pyrimidin-6-yl]amino]-N,1-dimethyl-cyclopentane-carboxamide] it was under 25 nM; in that of `CNC(=O)[C@]1(C)CC[C@@H](Nc2ncc3c(Br)nn(-c4ccc5c(c4)CCCN5)c3n2)C1` [(1R,3R)-3-[[3-bromo-1-(1,2,3,4-tetra-hydroquinolin-6-yl)pyrazolo[3,4-d]pyrimidin-6-yl]amino]-N,1-dimethyl-cyclopentanecarboxamide], 25 to 200 nM; in that of `CS(=O)(=O)N1CC[C@@H](Nc2ncc3c(Br)nn(-c4ccc5ncccc5c4)c3n2)C1` [(R)-3-bromo-N-(1-(methylsulfonyl)pyrrolidin-3-yl)-1-(quinolin-6-yl)-1H-pyrazolo[3,4-d] pyrimidin-6-amine], 200 to 500 nM.

Take `CNC(=O)C1(C)CC[C@@H](Nc2ncc3c(Br)nn(-c4cc(Cl)cc(CO)c4)c3n2)C1` (stereo partly drawn) [(3R)-3-[[3-bromo-1-[3-chloro-5-(hydroxy-methyl)phenyl]pyrazolo[3,4-d]pyrimidin-6-yl]amino]-N,1-dimethyl-cyclopentane-carboxamide]: the IC50 lay within 25 to 200 nM. Take `Cc1nnc(-c2ccc(-n3nc(Br)c4cnc(N[C@@H]5CC[C@](C(=O)N6CCNCC6)(C(C)C)C5)nc43)cc2CCC#N)s1` [3-[5-[3-bromo-6-[[(1R,3R)-3-isopropyl-3-(piperazine-1-carbonyl)cyclopentyl]amino]pyrazolo[3,4-d]pyrimidin-1-yl]-2-(5-methyl-1,3,4-thiadiazol-2-yl)phenyl] propanenitrile]: the IC50 is under 25 nM. In the case of `CS(=O)(=O)CCNC(=O)[C@@H]1CC[C@@H](Nc2ncc3c(Br)nn(-c4cc(C(F)F)c5ncccc5c4)c3n2)C1` [(1R,3R)-3-((3-bromo-1-(8-(difluoromethyl)quinolin-6-yl)-1H-pyrazolo[3,4-d]pyrimidin-6-yl)amino)-N-(2-(methylsulfonyl)ethyl)cyclo-pentane-1-carboxamide], the IC50 is 200 to 500 nM.

As for `COCCNC(=O)[C@H]1CC[C@H](Nc2ncc3c(Br)nn(-c4ccc5ncccc5c4)c3n2)C1` [(1S,3S)-3-((3-bromo-1-(quinolin-6-yl)-1H-pyrazolo[3,4-d]pyrimidin-6-yl)amino)-N-(2-methoxyethyl)cyclopentane-1-carboxamide], the IC50 fell in the range of 500 to 1000 nM. Take `O=C1OCC[C@@]12CC[C@@H](Nc1ncc3c(Br)nn(-c4cc(F)c5ncccc5c4)c3n1)C2` [(5S,8R)-8-[[3-bromo-1-(8-fluoro-6-quinolyl)pyrazolo[3,4-d]pyrimidin-6-yl]amino]-2-oxaspiro[4.4]nonan-1-one]: the IC50 is 25 to 200 nM. Same read-out and setting: the same measure for `CNC(=O)[C@]1(CCCOC)CC[C@@H](Nc2ncc3c(Br)nn(-c4cc(F)c5ncccc5c4)c3n2)C1` [(1S,3R)-3-[[3-bromo-1-(8-fluoro-6-quinolyl)pyrazolo[3,4-d]pyrimidin-6-yl]amino]-1-(3-methoxypropyl)-N-methyl-cyclopentane-carboxamide]: under 25 nM; for `CNC(=O)[C@]1(C)CC[C@@H](Nc2ncc3c(Br)nn(-c4ccc(-c5cnon5)cc4)c3n2)C1` [(1R,3R)-3-[[3-bromo-1-[4-(1,2,5-oxadiazol-3-yl)phenyl]pyrazolo[3,4-d]pyrimidin-6-yl]amino]-N,1-dimethyl-cyclopentane-carboxamide]: 25 to 200 nM. Same read-out and setting: in the case of `CNC(=O)[C@]1(C)CC[C@@H](Nc2ncc3c(Br)nn(-c4cc(CCCO)c5c(c4)CCC(=O)N5C)c3n2)C1` it was under 25 nM; in that of `C[C@@]1(O)CC[C@@H](Nc2ncc3c(Br)nn(-c4cc(CCN)c5ncccc5c4)c3n2)C1`, under 25 nM. For the compound `O=C([C@@H]1CC[C@@H](Nc2ncc3c(Br)nn(-c4ccc5ncccc5c4)c3n2)C1)N1C[C@H]2C[C@@H]1CO2` [((1R,4R)-2-oxa-5-azabicyclo[2.2.1]heptan-5-yl) ((1R,3R)-3-((3-bromo-1-(quinolin-6-yl)-1H-pyrazolo[3,4-d]pyrimidin-6-yl)amino)cyclo-pentyl)methanone], the IC50 fell in the range of 25 to 200 nM.

Turning to `CNC(=O)[C@]1(C)CC[C@@H](Nc2ncc3c(Br)nn(-c4cc(Cl)c(F)c(CN)c4)c3n2)C1`, the IC50 lay in the range of 25 to 200 nM. Regarding `COCCNC(=O)[C@@H]1CC[C@@H](Nc2ncc3c(Br)nn(-c4ccc5nc(C)cc(Cl)c5c4)c3n2)C1` [(1R,3R)-3-((3-bromo-1-(4-chloro-2-methyl-quinolin-6-yl)-1H-pyrazolo[3,4-d]pyrimidin-6-yl)amino)-N-(2-methoxyethyl)cyclopentane-1-carboxamide], the IC50 fell in the range of 200 to 500 nM. On the same count and under the same terms, the same measure for `COCCNC(=O)[C@]1(C(C)C)CC[C@@H](Nc2ncc3c(Br)nn(-c4ccc(-c5nnc(C)s5)c(CCC#N)c4)c3n2)C1` [(1R,3R)-3-[[3-bromo-1-[3-(2-cyanoethyl)-4-(5-methyl-1,3,4-thiadiazol-2-yl)phenyl]pyrazolo[3,4-d]pyrimidin-6-yl]amino]-1-isopropyl-N-(2-methoxyethyl)cyclopentane-carboxamide]: 25 to 200 nM. For `CNC(=O)[C@]1(C)CC[C@@H](Nc2ncc3c(Br)nn(-c4cc(O)c5c(c4)OCC(=O)N5C)c3n2)C1` [(1R,3R)-3-[[3-bromo-1-(5-hydroxy-4-methyl-3-oxo-1,4-benzoxazin-7-yl)pyrazolo[3,4-d]pyrimidin-6-yl]amino]-N,1-dimethyl-cyclo-pentanecarboxamide], the IC50 fell in the range of 25 to 200 nM. As for `CNC(=O)[C@]1(C)CCC(Nc2ncc3c(Br)nn(-c4ccc5c(c4)CCC(=O)N5)c3n2)C1` (stereo partly drawn) [(1R)-3-[[3-bromo-1-(2-oxo-3,4-dihydro-1H-quinolin-6-yl)pyrazolo[3,4-d]pyrimidin-6-yl]amino]-N,1-dimethyl-cyclopentane-carboxamide], the IC50 lay in the range of 25 to 200 nM. Turning to `CNC(=O)[C@]1(C)CC[C@@H](Nc2ncc3c(Br)nn(-c4ccc5ncc(NC(=O)CCN)cc5c4)c3n2)C1` [(1R,3R)-3-[[1-[3-(3-aminopropanoylamino)-6-quinolyl]-3-bromo-pyrazolo[3,4-d]pyrimidin-6-yl]amino]-N,1-dimethyl-cyclopentanecarboxamide], the IC50 was under 25 nM.

The record behind these values is patent US11046699B2, “Pyrazolo-pyrimidin-amino-cycloalkyl compounds and their therapeutic uses” (RAPT THERAPEUTICS, INC., priority 2018, dated 2021).
